In patent publication US5739169A, “Aromatic compounds for inhibiting immune response” (Procept, Incorporated, priority 1996, dated 1998):
Converted amounts (≈) assume the structure as drawn.

Assays:
Format in all cases: cell-based
[1] = system: human peripheral blood lymphocyte (PBL); assay: cells
[2] = system: human transformed T cell line, H9; assay: H9 proliferation Assay; settings: 3 days culture, 3H-thymidine pulse on day 3, harvest 16 hours later
Protocol: The human transformed T cell line, H9 (ATCC Rockville, Md.), was cultured at 3000/well in RPMI 1640 medium supplemented with 5 % human AB serum, glutamine (2 mM), penicillin/streptomycin (50 U/ml, 50 micrograms/ml), sodium pyruvate (1 mM), HEPES (10 mM), and non-essential amino acids (1X) in a total of 200 microliter/well in a 96 well plate. The H9 cells were cultured with and without various dilutions of test compound for 3 days.
The cells were pulsed on day 3 with 1 microCurie/well of ^3 H-thymidine using a standard procedure known in the art. The cells were then harvested 16 hours later onto glass fiber filters using a TOMTEC cell harvester. Cellular proliferation was assessed by thymidine incorporation and measured by liquid scintillation counting using a Beta plate counter (Pharmacia, Inc., Piscataway, N.J.). The IC 50 represents the amount of compound necessary to inhibit 50% of the thymidine incorporation.

PBLs = assay: Mixed Lymphocyte Reactions (MLR) Assay; settings: Homo sapiens, 3H-thymidine pulse on day 5, harvest 16 hours later
Protocol: Mixed Lymphocyte Reactions (MLR) Assay
Blood samples were drawn from two donors and the lymphocytes were separated out by Ficoll gradient by standard procedures known in the art. The isolated lymphocytes from done 1 were left untreated and the cells from donor 2 where suspended in Hanks Balanced Salt Solution at 10^7 /ml and treated with 50 micrograms/ml mitomycin C for 30 minutes at 37° C.
The PBLs were cultured in RPMI 1640 medium containing 5% human AB serum, glutamine (2 mM), penicillin/streptomycin (50 micrograms/ml / 50 micrograms/ml), sodium pyruvate (1 mM) and HEPES buffer (10 mM). For assay purposes, 10^5 PBLs from each donor were added to each well of a 96-well plate in a total volume of 200 microliters along with various dilutions of test compound.
The cultures were pulsed with 1 microCurie ^3 H-thymidine on day 5 and harvested 16 hours later onto a glass fiber filter. Thymidine incorporation was measured by liquid scintillation counting using a Beta plate counter. The IC50 represents the amount of compound necessary to inhibit 50 % of the thymidine incorporation.

Row | SMILES | IC50 [1] [µg/mL] | also measured
1 | COc1cc(-c2ccc(Nc3ccccc3C(=O)O)c(OC)c2)ccc1N [PRO3249] | 0.005 (≈ 0.0137 µM) | 
2 | COc1cc(-c2ccc(Nc3ccccc3C(=O)O)c(OC)c2)ccc1NC(=O)OC(C)(C)C [PRO4323] | 0.015 (≈ 0.0323 µM) | 
3 | COc1cc(-c2ccc(Nc3ccccc3C(=O)O)c(OC)c2)ccc1NC(C)=O [PRO4379] | 0.133 (≈ 0.327 µM) | 
4 | COc1cc(-c2ccc(Nc3ccccc3C(=O)O)c(OC)c2)ccc1Br [PRO4402] | 0.03 (≈ 0.07 µM) | 
5 | COc1cccc(-c2ccc(Nc3ccccc3C(=O)O)c(OC)c2)c1 [PRO4403] | 0.012 (≈ 0.0343 µM) | 
6 | COc1cc(-c2ccc([N+](=O)[O-])c(OC)c2)ccc1Nc1ccccc1C(=O)O [PRO4636] |  | IC50 [2]: 3.2 µg/mL (≈ 8.11 µM)
7 | Nc1ccc(-c2ccc(Nc3ccccc3C(=O)O)cc2)cc1 [PRO4707] | 0.086 (≈ 0.283 µM) | 
8 | Nc1ccc(C(=O)c2ccc(Nc3ccccc3C(=O)O)cc2)cc1 [PRO4708] | 0.345 (≈ 1.04 µM) | 
9 | O=C(O)c1ccccc1Nc1ccc(-c2ccccc2)cc1 [PRO4917] | 0.296 (≈ 1.02 µM) | 
10 | Nc1cccc(C(=O)c2cccc(Nc3ccccc3C(=O)O)c2)c1 [PRO4919] |  | IC50 (PBLs): 5 µg/mL (≈ 15 µM)
11 | COC(=O)c1ccccc1Nc1ccc(-c2ccc(N)c(OC)c2)cc1OC [PRO5021] | 0.037 (≈ 0.0978 µM) | 
12 | CC(=O)Nc1ccc(-c2ccc(Nc3ccccc3C(=O)O)cc2)cc1 [PRO5023] | > 1 | 
13 | COc1cc(-c2ccc(Nc3ccccc3-c3nn[nH]n3)c(OC)c2)ccc1N [PRO5105] | > 1 | 
14 | COc1cc(-c2ccc([N+](=O)[O-])c(OC)c2)ccc1Nc1ccccc1-c1nn[nH]n1 [PRO5106] | > 1 | 
15 | COc1cc(-c2ccc(N(C)C)c(OC)c2)ccc1Nc1ccccc1C(=O)O [PRO6365] | 0.194 (≈ 0.494 µM) | 
16 | CNc1ccc(-c2ccc(Nc3ccccc3C(=O)O)c(OC)c2)cc1OC [PRO6370] | 0.01 (≈ 0.0264 µM) | 
